Measurements published in PubChem BioAssay AID850 (SRMLSC, 2007).
The source made the active and inactive calls. How the calls were made is not given here.

How the values were obtained:
[1] = test system: Saccharomyces cerevisiae growth inhibition, permissive control; experiment: concentration-response yeast growth inhibition under permissive conditions, counter-assay for yeast lifespan-shortening chemical project (AID 850);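 further: growth read as optical density after one day of incubation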
[2] = as above; settings: Saccharomyces cerevisiae growth inhibition, permissive control, measured here: maximum growth inhibition, stronger effect = higher value

SMILES | IC50 [1] | inhibition ([2]; at 50 µM) | other results
O=C(O)c1ccccc1C(=O)NNc1ccc(Cl)cc1 | 7.11 µM | 96.5% | –
O=S(=O)(Cc1ccccc1)NCc1cccnc1 | > 100 µM (inactive) | – | inhibition ([2]; at 12.5 µM): 28.2%
CCOc1cc(N2CCOCC2)c(OCC)cc1NC(=O)COc1cccc2cccnc12 | > 100 µM (inactive) | – | inhibition ([2]; at 0.098 µM): 11.3%
Cc1cccc(OCCN2CSC(=S)N(C)C2)c1 | 10.6 µM | 87.3% | –
Cc1cc(O)c(/C=N/Nc2ccccc2)c(=O)o1 | 19.5 µM | 97.9% | –
O=C(OCn1ncc(Br)c(Br)c1=O)c1ccc(F)cc1 | 7.71 µM | – | inhibition ([2]; at 12.5 µM): 78.7%
Nc1nonc1C(=O)NCCN=Cc1cc(Cc2ccccc2)cc(Br)c1O | > 100 µM (inactive) | 22.4% | –
CCC(=O)NC(c1ccc(C)cc1)c1cc([N+](=O)[O-])c2cccnc2c1O (stereo unspecified) | 43.5 µM | 60.6% | –
Fc1ccc2nc3[nH]c4ccccc4c3nc2c1 | > 100 µM (inactive) | 20.7% | –
O=C(Oc1csc(=S)n1C(=O)c1ccccc1)c1ccccc1 | > 100 µM (inactive) | – | inhibition ([2]; at 12.5 µM): 11.4%
CC(=O)O/N=C/c1c(N2CCOCC2)n(C)c2ccccc12 | 17.5 µM | 96.5% | –
O=c1cc(-c2ccccc2)n(S(=O)(=O)c2ccccc2)o1 | > 100 µM (inactive) | – | inhibition ([2]; at 0.195 µM): 2.71%
Cc1ccc2[nH]c3c(c2c1)CCc1cn[nH]c1-3 | 14.7 µM | 98.6% | –
CC(C)(C)C(=O)O/N=C1/C(=O)N(c2ccccc2)c2ccccc21 | 42.9 µM | – | inhibition ([2]; at 25 µM): 52.3%
CC1(CCc2ccccc2)NC(=S)N(c2ccccc2)N1 (stereo unspecified) | 9.11 µM | 99.8% | –
CCc1cc(-c2n[nH]c(C)c2Oc2ccc(C(C)C)cc2)c(O)cc1O | 35 µM | 75.6% | –
Cc1ccc(/C=C2\C(=O)Nc3ccccc32)o1 | > 100 µM (inactive) | – | inhibition ([2]; at 25 µM): 26.6%
O=Nc1c(O)n(Cc2ccc(Cl)c(Cl)c2)c2ccccc12 | 43.1 µM | 58.3% | –
CC(=O)n1cc(C(C[N+](=O)[O-])SCCN)c2ccccc21 (stereo unspecified) | 13.9 µM | 100% | –
O=C1c2cccc3cccc(c23)C(=O)N1c1cccnc1 | > 100 µM (inactive) | 27.9% | –
CC(C)(C)c1ccc(C(=O)NC(=S)NNC(=O)c2cccs2)cc1 | 41.7 µM | 53.8% | –

SMILES | IC50 [1] | inhibition ([2]; at 50 µM) | other results
CC(=O)NC(c1cccs1)c1cc([N+](=O)[O-])c2cccnc2c1O (stereo unspecified) | > 100 µM (inactive) | 17.1% | –
c1ccc(-c2nc3c(ccc4ccccc43)[nH]2)nc1 | 36.8 µM | 80.8% | –
CC1CCC2(CC1)NC(=S)N(c1ccccc1)N2 (stereo unspecified) | 14.1 µM | 97.5% | –
O=C1C=C(c2ccc(Cl)cc2)C(=O)N1Nc1ccccc1 | 6.75 µM | 99.4% | –
CC1=C(C)/C(=N\OS(=O)(=O)c2ccc(C)cc2)C=CC1=O | 8.79 µM | – | inhibition ([2]; at 25 µM): 99.2%
Cc1noc2ncnc(Sc3ccccc3Cl)c12 | 39.5 µM | 69% | –
CC(=O)/C(=N\Nc1ccc(C)cc1)N1CCOCC1 | 5.2 µM | 96.4% | –
Nc1ccc(C(=O)OCC(=O)Nc2ccc3c(c2)OCO3)cc1[N+](=O)[O-] | > 100 µM (inactive) | – | inhibition ([2]; at 0.391 µM): 17.2%
CCc1ccc2c(c1)C1(NN=C(c3ccc(C)cc3)S1)C(=O)N2 (stereo unspecified) | 21.3 µM | 98% | –
COc1ccc(CCNC(=O)c2cnn3c(C(F)F)cc(C)nc23)cc1OC | > 100 µM (inactive) | – | inhibition ([2]; at 3.125 µM): -1.3%
O=C(CSc1cccc[n+]1[O-])c1cc2ccccc2o1 | 3.68 µM | 99.2% | –
COC(=O)c1ccc(CSc2ccc3nnc(-c4cccc(F)c4)n3n2)o1 | > 100 µM (inactive) | – | inhibition ([2]; at 6.25 µM): 17.7%
Oc1cccc(C=NCc2ccccc2)c1O | 10.4 µM | 98.8% | –
OC(Cn1cncn1)(c1ccccc1)c1ccccc1 | 6.82 µM | – | inhibition ([2]; at 12.5 µM): 90.3%
Cc1ccc(-c2cc(-c3ccccc3Cl)[nH]n2)c(O)c1 | > 100 µM (inactive) | – | inhibition ([2]; at 0.781 µM): 16.4%
Cc1cccc(-c2nnc3sc(-c4ccccc4C)nn23)c1 | > 100 µM (inactive) | 29.1% | –
CC(C)(C)n1nc(-c2ccc(F)cc2)c2c(N)ncnc21 | < 0.098 µM | – | inhibition ([2]; at 25 µM): 86.7%
O=C(Nc1ccc(Cl)cc1)ON=C1CCCC1 | 7.46 µM | – | inhibition ([2]; at 25 µM): 99.4%
CN(O)/C=c1/ccc2c(n1)C(=O)C=CC=2 | 8.03 µM | – | inhibition ([2]; at 12.5 µM): 98%
COc1ccc2c(c1)S/C(=C\C(=O)c1ccncc1)N2C | 6.24 µM | 92.6% | –
Clc1cc2nc3ccccn3c2cc1Cl | > 100 µM (inactive) | 16% | –

SMILES | IC50 [1] | inhibition ([2]; at 50 µM) | other results
c1ccc(-c2ccc(C(c3ccccc3)n3ccnc3)cc2)cc1 (stereo unspecified) | 0.793 µM | – | inhibition ([2]; at 3.125 µM): 94.4%
O=C(O)c1cc2ccc3ccccc3c2oc1=O | 32 µM | 64.3% | –
Cc1cc(C)c2c(=O)n(CC(=O)N3CCC(Cc4ccccc4)CC3)sc2n1 | > 100 µM (inactive) | – | inhibition ([2]; at 0.391 µM): 6.81%
Cc1ncc(CC(=O)n2cc(C(=O)c3cc(Cl)ccc3O)cn2)s1 | 5.42 µM | 100% | –
CCOc1ccc(N/N=C(/C#N)C(N)=O)cc1 | 11 µM | 87.7% | –
CC(C)(C)C(O)C(Oc1ccc(Cl)cc1)n1cncn1 (stereo unspecified) | 2.15 µM | – | inhibition ([2]; at 12.5 µM): 95.1%
COc1ccc(-c2n[nH]c(C(F)(F)F)c2-c2cc3ccccc3o2)c(O)c1 | 36.6 µM | 53.6% | –
O=C(O)c1ccc(N(c2ccccc2)c2ccccc2)cc1 | > 100 µM (inactive) | – | inhibition ([2]; at 0.195 µM): 10.2%
O=C(NNC(=S)NC(=O)C12CC3CC(CC(C3)C1)C2)c1ccncc1 | 13.4 µM | 94.8% | –
COCC(C)OC(=O)/C(C#N)=C\c1coc2ccc(C)cc2c1=O (stereo unspecified) | > 100 µM (inactive) | 16.6% | –
CCOc1ccc(-c2[nH]ncc2Oc2cccc(OC)c2)c(O)c1 | > 100 µM (inactive) | 28.1% | –
Oc1c(I)cc(Cl)c2cccnc12 | 16.7 µM | 98% | –
O=C1C=C(c2ccccc2)C(=O)N1Nc1ccccc1 | 23.6 µM | 85.8% | –
Cc1ccccc1OCCCN1C(=O)C(=O)c2cccc(C)c21 | > 100 µM (inactive) | – | inhibition ([2]; at 25 µM): 24.9%
OC(CNCCc1ccc(C(F)(F)F)cc1)COc1ccc2ccccc2c1 (stereo unspecified) | > 100 µM (inactive) | 20.9% | –
O=S(=O)(Nc1ccc(-n2cccc2)cc1)c1ccc(Cl)cc1Cl | > 100 µM (inactive) | – | inhibition ([2]; at 0.391 µM): 29.9%
Cc1cc(-c2ccco2)c(C#N)c2nc3ccccc3n12 | 8.64 µM | 77.8% | –
O=C(O)c1cc(-c2ccc(/C=N/Nc3ccc(Cl)cc3)o2)ccc1Cl | 4.41 µM | 98.8% | –
O=C(Nc1nc(-c2ccccn2)cs1)c1ncc(Cl)c(Cl)c1Cl | > 100 µM (inactive) | – | inhibition ([2]; at 12.5 µM): 13.1%
Cc1ccccc1C(=O)NNC(=S)NC(=O)COc1ccccc1 | 26.5 µM | 73.9% | –
CCCc1ccc(Oc2c(-c3ccc(O)c(C)c3O)n[nH]c2C)cc1 | 14.8 µM | 93.6% | –

SMILES | IC50 [1] | inhibition ([2]; at 50 µM) | other results
N#C/C(=C/c1cn(-c2ccccc2)nc1-c1cccc(OCc2ccc(F)cc2)c1)C(=O)NCCCn1ccnc1 | > 100 µM (inactive) | – | inhibition ([2]; at 0.391 µM): 4.5%
Cc1ccc(/C=C/C(=O)c2ccccc(=O)c2O)c(C)c1 | 6.08 µM | – | inhibition ([2]; at 25 µM): 101%
Cc1cc(/C=N/n2cnnc2)c(C)n1-c1ccc(OCc2ccc(Cl)cc2Cl)cc1 | > 100 µM (inactive) | – | inhibition ([2]; at 25 µM): 25.7%
COc1cc(/C=N/N(C)c2ccccc2)cc(Cl)c1O | > 100 µM (inactive) | – | inhibition ([2]; at 1.563 µM): 14.6%
O=C(CCc1ccccc1)NNC(=S)NC(=O)c1ccccc1 | > 100 µM (inactive) | – | inhibition ([2]; at 12.5 µM): 22.5%
Cc1cc2nc(C)n3c4ccccc4nc3n2n1 | 35.3 µM | 63.4% | –
CCCn1c(CNc2ccccc2O)nc2ccccc21 | > 100 µM (inactive) | 18.9% | –
O=[N+]([O-])c1ccc(CN2CCCCCC2)s1 | > 100 µM (inactive) | – | inhibition ([2]; at 25 µM): 28.2%
COC1=C(c2ccccc2)C(=O)c2ccccc2C1=O | 19.8 µM | 96.4% | –
Fc1ccc(-c2ccc(-c3nn4c(-c5ccco5)nnc4s3)o2)cc1 | > 100 µM (inactive) | – | inhibition ([2]; at 6.25 µM): 13.4%
COc1cc(Br)cc(/C=N/c2ncn[nH]2)c1O | 18.3 µM | 97.8% | –
CCn1c2ccc(C)cc2c2nc3cc(C(=O)O)ccc3nc21 | 23.9 µM | 75% | –
CC1CCCC2(C1)NC(=S)N(c1ccccc1)N2 (stereo unspecified) | 20.5 µM | 78.8% | –
Nc1c(Cl)ncnc1N/N=C/c1ccccn1 | 8.45 µM | 99.2% | –
Cc1ccc(NC(=O)CSC2=C(C#N)C(c3ccc4c(c3)OCO4)C3=C(CCCC3=O)N2)c(C)c1 (stereo unspecified) | > 100 µM (inactive) | – | inhibition ([2]; at 0.195 µM): 8.26%
CCOC(=O)C1CCCCN1C(=O)CCc1c(C)nc2cc(-c3ccccc3)nn2c1C (stereo unspecified) | > 100 µM (inactive) | – | inhibition ([2]; at 25 µM): 21.6%
O=S(=O)(/N=C(\Sc1ccc(Cl)cc1)c1ccccc1)c1ccccc1 | 33.3 µM | 74% | –
Cn1c(=O)c(C(=O)Nc2ncccn2)c(O)c2ccccc21 | 49.9 µM | 56.6% | –
Cc1ccc2nc3c(nc2c1)-c1ccccc1C3=O | > 100 µM (inactive) | 17% | –
CC(C)CNC(=O)CN(C1CCCCC1)S(C)(=O)=O | > 100 µM (inactive) | – | inhibition ([2]; at 1.563 µM): 9.04%
